System: HBV
Experiment: HBV-DNA Antiviral Assay Using HepG2.2.15 Cells (extracellular HBV DNA by qPCR)
Type: cell-based, hepatitis B virus (HBV)
Settings: HBV DNA inhibition, HepG2.2.15 cells, extracellular HBV DNA by qPCR; read-out: EC50
Outline: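 HepG2.2.15 cells were treated on day 1 with 8 concentrations (4-fold dilutions, duplicate; 0.5% DMSO), with compound-containing medium refreshed on day 4, at 37 °C. On day 7, supernatant HBV DNA was measured by qPCR against a plasmid standard curve, with inhibition normalised between DMSO and ETV controls. EC50/EC90 and CC50 (CellTiter-Glo ATP) came from variable-slope fits.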

Q: For `Cc1c(C(=O)C(=O)NC2(c3cnn(C4CC4)n3)CC(F)(F)C2)c(C)n(C)c1C(=O)Nc1ccc(F)c(C(F)(F)F)c1` [Compound 142, 4-[2-[[1-(2-cyclopropyltriazol-4-yl)-3,3-difluoro-cyclobutyl]amino]-2-oxo-acetyl]-N-[4-fluoro-3-(trifluoromethyl)phenyl]-1,3,5-trimethyl-pyrrole-2-carboxamide], which EC50 is on record?
A: Its EC50 is 1 to 10 nM.

Q: Which EC50 does the source give for `Cc1c(C(=O)C(=O)NC2(c3cn(C4CC4)nn3)CC(F)(F)C2)c(C)n(C)c1C(=O)Nc1ccc(F)c(C(F)(F)F)c1` [Compound 146, 4-[2-[[1-(1-cyclopropyltriazol-4-yl)-3,3-difluoro-cyclobutyl]amino]-2-oxo-acetyl]-N-[4-fluoro-3-(trifluoromethyl)phenyl]-1,3,5-trimethyl-pyrrole-2-carboxamide] here?
A: Its EC50 is 1 to 10 nM.

Same assay, conditions: Hepatitis B virus; HBV DNA inhibition, HepG2.2.15 cells, extracellular HBV DNA by qPCR; read-out: EC50

Q: How did the EC50 turn out when `Cc1c(C(=O)C(=O)NC(C)(C)c2ccccn2)c(C)n(C)c1C(=O)Nc1ccc(F)c(C(F)(F)F)c1` [Compound 99, N-[4-fluoro-3-(trifluoromethyl)phenyl]-1,3,5-trimethyl-4-[2-[[1-methyl-1-(2-pyridyl)ethyl]amino]-2-oxo-acetyl]pyrrole-2-carboxamide] was run?
A: The EC50 was 1 to 10 nM.

Q: Which EC50 does the source give for `Cc1c(C(=O)C(=O)NC(C)(C)c2cccnc2)c(C)n(C)c1C(=O)Nc1ccc(F)c(C(F)(F)F)c1` [Compound 100, N-[4-fluoro-3-(trifluoromethyl)phenyl]-1,3,5-trimethyl-4-[2-[[1-methyl-1-(3-pyridyl)ethyl]amino]-2-oxo-acetyl]pyrrole-2-carboxamide] here?
A: The EC50 was less than 1 nM.

Q: For `Cc1c(C(=O)C(=O)NC(C)(C)c2ccncc2)c(C)n(C)c1C(=O)Nc1ccc(F)c(C(F)(F)F)c1` [Compound 101, N-[4-fluoro-3-(trifluoromethyl)phenyl]-1,3,5-trimethyl-4-[2-[[1-methyl-1-(4-pyridyl)ethyl]amino]-2-oxo-acetyl]pyrrole-2-carboxamide], which EC50 is on record?
A: The EC50 was 1 to 10 nM.

Q: Which EC50 does the source give for `Cc1c(C(=O)C(=O)NC2(C#CC3(O)CC3)COC2)c(C)n(C)c1C(=O)Nc1ccc(F)c(C#N)c1` [Compound 102, N-(3-cyano-4-fluoro-phenyl)-4-[2-[[3-[2-(1-hydroxycyclopropyl)ethynyl]oxetan-3-yl]amino]-2-oxo-acetyl]-1,3,5-trimethyl-pyrrole-2-carboxamide] here?
A: The EC50 was 1 to 10 nM.

Q: Which EC50 does the source give for `Cc1c(C(=O)C(=O)NC(C)(C)c2nccs2)c(C)n(C)c1C(=O)Nc1ccc(F)c(C(F)(F)F)c1` [Compound 103, N-[4-fluoro-3-(trifluoromethyl)phenyl]-1,3,5-trimethyl-4-[2-[(1-methyl-1-thiazol-2-yl-ethyl)amino]-2-oxo-acetyl]pyrrole-2-carboxamide] here?
A: Its EC50 is 1 to 10 nM.

Q: With `Cc1c(C(=O)C(=O)NC(C)(C)c2c[nH]cn2)c(C)n(C)c1C(=O)Nc1ccc(F)c(C#N)c1` [Compound 104, N-(3-cyano-4-fluoro-phenyl)-4-[2-[[1-(1H-imidazol-4-yl)-1-methyl-ethyl]amino]-2-oxo-acetyl]-1,3,5-trimethyl-pyrrole-2-carboxamide] as the compound, how does the EC50 read?
A: Its EC50 is 1 to 10 nM.

Q: With `C#CC1(N(COC(=O)[C@@H](N)C(C)C)C(=O)C(=O)c2c(C)c(C(=O)Nc3ccc(F)c(C#N)c3)n(C)c2C)COC1` [Compound 105, [[2-[5-[(3-cyano-4-fluoro-phenyl)carbamoyl]-1,2,4-trimethyl-pyrrol-3-yl]-2-oxo-acetyl]-(3-ethynyloxetan-3-yl)amino]methyl-(2S)-2-amino-3-methyl-butanoate] as the compound, how does the EC50 read?
A: Its EC50 is 1 to 10 nM.

Q: For `Cc1c(C(=O)C(=O)NC(C)(C)c2c[nH]cn2)c(C)n(C)c1C(=O)Nc1ccc(F)c(C(F)(F)F)c1` [Compound 106, N-[4-fluoro-3-(trifluoromethyl)phenyl]-4-[2-[[1-(1H-imidazol-4-yl)-1-methyl-ethyl]amino]-2-oxo-acetyl]-1,3,5-trimethyl-pyrrole-2-carboxamide], which EC50 is on record?
A: Its EC50 is 1 to 10 nM.

Q: `C#CC1(NC(=O)C(=O)c2c(C)c(C(=O)Nc3ccc(F)c(C#N)c3)n(C)c2C)CCOCC1` [Compound 107, N-(3-cyano-4-fluoro-phenyl)-4-[2-[(4-ethynyltetrahydropyran-4-yl)amino]-2-oxo-acetyl]-1,3,5-trimethyl-pyrrole-2-carboxamide] was tested. Which EC50 did it give?
A: Its EC50 is 1 to 10 nM.

Q: For `C#CC1(NC(=O)C(=O)c2c(C)c(C(=O)Nc3ccc(F)c(C#N)c3)n(C)c2C)CCS(=O)(=O)CC1` [Compound 108, N-(3-cyano-4-fluoro-phenyl)-4-[2-[(4-ethynyl-1,1-dioxo-thian-4-y1)amino]-2-oxo-acetyl]-1,3,5-trimethyl-pyrrole-2-carboxamide], which EC50 is on record?
A: The EC50 was 1 to 10 nM.

Q: With `C#CC1(NC(=O)C(=O)c2c(C)c(C(=O)Nc3ccc(F)c(C#N)c3)n(C)c2C)CCCC1` [Compound 109, N-(3-cyano-4-fluoro-phenyl)-4-[2-[(1-ethynylcyclopentyl)amino]-2-oxo-acetyl]-1,3,5-trimethyl-pyrrole-2-carboxamide] as the compound, how does the EC50 read?
A: The EC50 was 1 to 10 nM.

Q: `Cc1c(C(=O)C(=O)NC(C)(C)c2ncc[nH]2)c(C)n(C)c1C(=O)Nc1ccc(F)c(C#N)c1` [Compound 131, N-(3-cyano-4-fluoro-phenyl)-4-[2-[[1-(1H-imidazol-2-yl)-1-methyl-ethyl]amino]-2-oxo-acetyl]-1,3,5-trimethyl-pyrrole-2-carboxamide] was tested. Which EC50 did it give?
A: Its EC50 is 1 to 10 nM.

Q: For `Cc1c(C(=O)C(=O)NC(C)(C)c2ncc[nH]2)c(C)n(C)c1C(=O)Nc1ccc(F)c(C(F)(F)F)c1` [Compound 132, N-[4-fluoro-3-(trifluoromethyl)phenyl]-4-[2-[[1-(1H-imidazol-2-yl)-1-methyl-ethyl]amino]-2-oxo-acetyl]-1,3,5-trimethyl-pyrrole-2-carboxamide], which EC50 is on record?
A: Its EC50 is 1 to 10 nM.

Q: Which EC50 does the source give for `C#CC1(NC(=O)C(=O)c2c(C)c(C(=O)Nc3ccc(Cl)c(Br)c3)n(C)c2C)CC(F)(F)C1` [Compound 133, N-(3-bromo-4-chloro-phenyl)-4-[2-[(1-ethynyl-3,3-difluoro-cyclobutyl)amino]-2-oxo-acetyl]-1,3,5-trimethyl-pyrrole-2-carboxamide] here?
A: The EC50 was 1 to 10 nM.

Q: For `C#CC1(NC(=O)C(=O)c2c(C)c(C(=O)Nc3ccc(Br)c(Cl)c3)n(C)c2C)CC(F)(F)C1` [Compound 134, N-(4-bromo-3-chloro-phenyl)-4-[2-[(1-ethynyl-3,3-difluoro-cyclobutyl)amino]-2-oxo-acetyl]-1,3,5-trimethyl-pyrrole-2-carboxamide], which EC50 is on record?
A: The EC50 was 1 to 10 nM.

Q: For `Cc1c(C(=O)C(=O)NC(C)(C)c2cnn(C3CC3)c2)c(C)n(C)c1C(=O)Nc1ccc(F)c(C#N)c1` [Compound 135, N-(3-cyano-4-fluoro-phenyl)-4-[2-[[1-(1-cyclopropylpyrazol-4-yl)-1-methyl-ethyl]amino]-2-oxo-acetyl]-1,3,5-trimethyl-pyrrole-2-carboxamide], which EC50 is on record?
A: The EC50 was 1 to 10 nM.

Q: Which EC50 does the source give for `Cc1c(C(=O)C(=O)NC(C)(C)c2cnn(C3CC3)c2)c(C)n(C)c1C(=O)Nc1ccc(F)c(C(F)(F)F)c1` [Compound 136, 4-[2-[[1-(1-cyclopropylpyrazol-4-yl)-1-methyl-ethyl]amino]-2-oxo-acetyl]-N-[4-fluoro-3-(trifluoromethyl)phenyl]-1,3,5-trimethyl-pyrrole-2-carboxamide] here?
A: The EC50 was 1 to 10 nM.

Q: With `Cc1c(C(=O)C(=O)NC(C)(C)c2ccnn2C)c(C)n(C)c1C(=O)Nc1ccc(F)c(C#N)c1` [Compound 137, N-(3-cyano-4-fluoro-phenyl)-1,3,5-trimethyl-4-[2-[[1-methyl-1-(2-methylpyrazol-3-yl)ethyl]amino]-2-oxo-acetyl]pyrrole-2-carboxamide] as the compound, how does the EC50 read?
A: Its EC50 is 1 to 10 nM.

Q: `Cc1c(C(=O)C(=O)NC(C)(C)c2ccnn2C)c(C)n(C)c1C(=O)Nc1ccc(F)c(C(F)(F)F)c1` [Compound 138, N-[4-fluoro-3-(trifluoromethyl)phenyl]-1,3,5-trimethyl-4-[2-[[1-methyl-1-(2-methylpyrazol-3-yl)ethyl]amino]-2-oxo-acetyl]pyrrole-2-carboxamide] was tested. Which EC50 did it give?
A: The EC50 was 1 to 10 nM.

Q: Which EC50 does the source give for `Cc1c(C(=O)C(=O)NC(C)(C)c2nnco2)c(C)n(C)c1C(=O)Nc1ccc(F)c(C#N)c1` [Compound 139, N-(3-cyano-4-fluoro-phenyl)-1,3,5-trimethyl-4-[2-[[1-methyl-1-(1,3,4-oxadiazol-2-yl)ethyl]amino]-2-oxo-acetyl]pyrrole-2-carboxamide] here?
A: The EC50 was 1 to 10 nM.

Q: For `Cc1c(C(=O)C(=O)NC(C)(C)c2cscn2)c(C)n(C)c1C(=O)Nc1ccc(F)c(C#N)c1` [Compound 140, N-(3-cyano-4-fluoro-phenyl)-1,3,5-trimethyl-4-[2-[(1-methyl-1-thiazol-4-yl-ethyl)amino]-2-oxo-acetyl]pyrrole-2-carboxamide], which EC50 is on record?
A: Its EC50 is 1 to 10 nM.

Q: Which EC50 does the source give for `Cc1c(C(=O)C(=O)NC(C)(C)c2cscn2)c(C)n(C)c1C(=O)Nc1ccc(F)c(C(F)(F)F)c1` [Compound 141, N-[4-fluoro-3-(trifluoromethyl)phenyl]-1,3,5-trimethyl-4-[2-[(1-methyl-1-thiazol-4-yl-ethyl)amino]-2-oxo-acetyl]pyrrole-2-carboxamide] here?
A: Its EC50 is 1 to 10 nM.

Q: `Cc1c(C(=O)C(=O)NC(C)(C)c2nnco2)c(C)n(C)c1C(=O)Nc1ccc(F)c(C(F)(F)F)c1` [Compound 143, N-[4-fluoro-3-(trifluoromethyl)phenyl]-1,3,5-trimethyl-4-[2-[[1-methyl-1-(1,3,4-oxadiazol-2-yl)ethyl]amino]-2-oxo-acetyl]pyrrole-2-carboxamide] was tested. Which EC50 did it give?
A: Its EC50 is 1 to 10 nM.

Q: How did the EC50 turn out when `Cc1c(C(=O)C(=O)NC(C)(C)c2cncnc2)c(C)n(C)c1C(=O)Nc1ccc(F)c(C#N)c1` [Compound 144, N-(3-cyano-4-fluoro-phenyl)-1,3,5-trimethyl-4-[2-[(1-methyl-1-pyrimidin-5-yl-ethyl)amino]-2-oxo-acetyl]pyrrole-2-carboxamide] was run?
A: Its EC50 is 1 to 10 nM.

Q: `Cc1c(C(=O)C(=O)NC(C)(C)c2ccc(F)cn2)c(C)n(C)c1C(=O)Nc1ccc(F)c(C#N)c1` [Compound 145, N-(3-cyano-4-fluoro-phenyl)-4-[2-[[1-(5-fluoro-2-pyridyl)-1-methyl-ethyl]amino]-2-oxo-acetyl]-1,3,5-trimethyl-pyrrole-2-carboxamide] was tested. Which EC50 did it give?
A: The EC50 was 1 to 10 nM.

From US12599582B2, “Pyrrole compounds” (ALIGOS THERAPEUTICS, INC., priority 2019, dated 2026)
